# PubChem BioAssay (NCI)
#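 Assay format: 96-well plates, 48-hour exposure. Abbreviation: GI50, concentration required for 50% inhibition of growth. TGI is the concentration that stops growth completely.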
# Experiments:
# Experiment in all cases: DTP human tumour cell line panel, 48 h
# [1] = test system: 786-0 renal
# [2] = test system: SF-268 CNS
# [3] = test system: COLO 205 colon
# [4] = test system: CAKI-1 renal
# [5] = test system: UACC-257 melanoma
# [6] = test system: HS 578T breast
# [7] = test system: SW-620 colon
# [8] = test system: SNB-19 CNS
# [9] = test system: DU-145 prostate
# [10] = test system: LOX IMVI melanoma
# [11] = test system: PC-3 prostate
# [12] = test system: A549 NSCLC
# [13] = test system: NCI-H226 lung
# [14] = test system: CCRF-CEM leukemia
# [15] = test system: OVCAR-8 ovarian
# [16] = test system: OVCAR-5 ovarian
# [17] = test system: SK-MEL-28 melanoma
# [18] = test system: NCI-H23 lung
# [19] = test system: HOP-62 NSCLC
# [20] = test system: T-47D breast
# [21] = test system: SF-539 CNS
# [22] = test system: SK-MEL-2 melanoma
# [23] = test system: HCT-116 colon
# [24] = test system: HCT-15 colon
# [25] = test system: NCI-H522 lung
# [26] = test system: SK-MEL-5 melanoma
# [27] = test system: MCF7 breast
# [28] = test system: KM12 colon
# [29] = test system: MDA-MB-231 breast
# [30] = test system: MDA-MB-435
# [31] = test system: RPMI-8226 leukemia
# [32] = test system: OVCAR-3 ovarian
# [33] = test system: IGROV1 ovarian
# [34] = test system: HCC-2998 colon
# [35] = test system: M14 melanoma
# [36] = test system: U251 CNS
# [37] = test system: NCI-H460 lung
# [38] = test system: TK-10 renal
# [39] = test system: HL-60(TB) leukemia
# [40] = test system: SN12C renal
# [41] = test system: MOLT-4 leukemia
# [42] = test system: UACC-62 melanoma
# [43] = test system: HT29 colon
# [44] = test system: K-562 leukemia
# [45] = test system: UO-31 renal
# [46] = test system: EKVX NSCLC
# [47] = test system: ACHN renal
# [48] = test system: RXF 393 renal
# [49] = test system: HOP-92 NSCLC
# [50] = test system: NCI/ADR-RES ovarian
# [51] = test system: SF-295 CNS
smiles,measurement,setting,value
CCN(CC)CCOc1ccc(/C=C2\C[C@H]3[C@@H]4CC=C5C[C@@H](OC(C)=O)CC[C@]5(C)[C@H]4CC[C@]3(C)[C@H]2OC(C)=O)cc1OC,GI50,[1],9.66 µM
same,TGI,[1],18.7 µM
same,GI50,[2],8.34 µM
same,TGI,[2],19.8 µM
same,GI50,[3],19.6 µM
same,TGI,[3],> 50 µM
same,GI50,[4],9.21 µM
same,TGI,[4],18.6 µM
same,GI50,[5],10.6 µM
same,TGI,[5],20 µM
same,GI50,[6],10.6 µM
same,TGI,[6],22.4 µM
same,GI50,[7],16.8 µM
same,TGI,[7],> 50 µM
same,GI50,[8],11.8 µM
same,TGI,[8],30.1 µM
same,GI50,[9],5.84 µM
same,TGI,[9],12.2 µM
same,GI50,[10],18.1 µM
same,TGI,[10],> 50 µM
same,GI50,[11],7.68 µM
same,TGI,[11],21.3 µM
same,GI50,[12],9.86 µM
same,TGI,[12],19.6 µM
same,GI50,[13],11.3 µM
same,TGI,[13],31.7 µM
same,GI50,[14],0.361 µM
same,TGI,[14],6.77 µM
same,GI50,[15],11.4 µM
same,TGI,[15],22.7 µM
same,GI50,[16],9.3 µM
same,TGI,[16],18 µM
same,GI50,[17],12.4 µM
same,TGI,[17],> 50 µM
same,GI50,[18],7.96 µM
same,TGI,[18],16.1 µM
same,GI50,[19],10.1 µM
same,TGI,[19],19.5 µM
same,GI50,[20],16.3 µM
same,TGI,[20],48.1 µM
same,GI50,[21],8.59 µM
same,TGI,[21],16 µM
same,GI50,[22],19.2 µM
same,TGI,[22],> 50 µM
same,GI50,[23],9.76 µM
same,TGI,[23],18.6 µM
same,GI50,[24],7.38 µM
same,TGI,[24],> 50 µM
same,GI50,[25],17.4 µM
same,TGI,[25],> 50 µM
same,GI50,[26],5.39 µM
same,TGI,[26],17 µM
same,GI50,[27],12.8 µM
same,TGI,[27],> 50 µM
same,GI50,[28],9.65 µM
same,TGI,[28],21.4 µM
same,GI50,[29],14.1 µM
same,TGI,[29],31.8 µM
same,GI50,[30],11 µM
same,TGI,[30],21.7 µM
same,GI50,[31],1.4 µM
same,TGI,[31],24.2 µM
same,GI50,[32],10.3 µM
same,TGI,[32],22.1 µM
same,GI50,[33],14.9 µM
same,TGI,[33],> 50 µM
same,GI50,[34],5.34 µM
same,TGI,[34],12.5 µM
same,GI50,[35],7.62 µM
same,TGI,[35],17.2 µM
same,GI50,[36],10.3 µM
same,TGI,[36],26.2 µM
same,GI50,[37],7.6 µM
same,TGI,[37],34.6 µM
same,GI50,[38],9.67 µM
same,TGI,[38],20.5 µM
same,GI50,[39],9.57 µM
same,TGI,[39],19.5 µM
same,GI50,[40],9.06 µM
same,TGI,[40],21.3 µM
same,GI50,[41],1.4 µM
same,TGI,[41],20.6 µM
same,GI50,[42],11 µM
same,TGI,[42],24.8 µM
same,GI50,[43],14.8 µM
same,TGI,[43],> 50 µM
same,GI50,[44],8.17 µM
same,TGI,[44],28.4 µM
same,GI50,[45],11.6 µM
same,TGI,[45],27 µM
same,GI50,[46],6.84 µM
same,TGI,[46],14.5 µM
same,GI50,[47],9.19 µM
same,TGI,[47],19.2 µM
same,GI50,[48],8.96 µM
same,TGI,[48],20.7 µM
same,GI50,[49],5.95 µM
same,TGI,[49],14.7 µM
same,GI50,[50],11.1 µM
same,TGI,[50],22.3 µM
same,GI50,[51],12.2 µM
same,TGI,[51],24.3 µM
